Test results published in PubChem BioAssay (NCI).
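Following 48 hours of exposure in 96-well plates, responses at five concentrations were used to interpolate endpoints linearly. GI50 marks 50% less growth. The concentration for full growth arrest is given as TGI.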

How the values were obtained:
Test in all cases: NCI anticancer screen, dose series, 48 h
[1] = test system: SK-MEL-5 melanoma
[2] = test system: PC-3 prostate
[3] = test system: A498 renal
[4] = test system: SK-MEL-28 melanoma
[5] = test system: OVCAR-4 ovarian
[6] = test system: NCI-H226 lung
[7] = test system: NCI-H460 lung
[8] = test system: TK-10 renal
[9] = test system: SN12C renal
[10] = test system: U251 CNS
[11] = test system: SF-268 CNS
[12] = test system: SK-MEL-2 melanoma
[13] = test system: MDA-MB-468 breast
[14] = test system: HCT-15 colon
[15] = test system: ACHN renal
[16] = test system: RXF 393 renal
[17] = test system: OVCAR-8 ovarian
[18] = test system: OVCAR-3 ovarian
[19] = test system: MDA-MB-231 breast
[20] = test system: SK-OV-3 ovarian
[21] = test system: SF-295 CNS
[22] = test system: K-562 leukemia
[23] = test system: A549 NSCLC
[24] = test system: IGROV1 ovarian
[25] = test system: UO-31 renal
[26] = test system: CCRF-CEM leukemia
[27] = test system: SR leukemia
[28] = test system: RPMI-8226 leukemia
[29] = test system: KM12 colon
[30] = test system: MOLT-4 leukemia
[31] = test system: COLO 205 colon
[32] = test system: HT29 colon
[33] = test system: SF-539 CNS
[34] = test system: HOP-92 NSCLC
[35] = test system: NCI-H522 lung
[36] = test system: CAKI-1 renal
[37] = test system: OVCAR-5 ovarian
[38] = test system: UACC-62 melanoma
[39] = test system: EKVX NSCLC
[40] = test system: HL-60(TB) leukemia
[41] = test system: MALME-3M melanoma
[42] = test system: UACC-257 melanoma
[43] = test system: NCI-H23 lung
[44] = test system: SNB-19 CNS
[45] = test system: DU-145 prostate
[46] = test system: T-47D breast
[47] = test system: NCI/ADR-RES ovarian
[48] = test system: HOP-62 NSCLC
[49] = test system: MDA-MB-435
[50] = test system: BT-549 breast
[51] = test system: LOX IMVI melanoma
[52] = test system: SW-620 colon
[53] = test system: HCC-2998 colon
[54] = test system: 786-0 renal
[55] = test system: MCF7 breast
[56] = test system: M14 melanoma
[57] = test system: HS 578T breast
[58] = test system: HCT-116 colon

Question: With `CC(=O)Nc1ccc(-n2cnc3cc(-c4ccc(O)cc4)ccc32)cc1C(F)(F)F` as the compound, how does the GI50 [1] read?
Answer: 5.54 µM

Question: What about the TGI [1] of the same compound?
Answer: 32.9 µM

Question: What about the GI50 [2] of the same compound?
Answer: 8.15 µM

Question: What about the TGI [2] of the same compound?
Answer: 39.5 µM

Question: What about the GI50 [3] of the same compound?
Answer: 25.6 µM

Question: And the TGI [3]?
Answer: 80.5 µM

Question: What about the GI50 [4] of the same compound?
Answer: 6.4 µM

Question: What about the TGI [4] of the same compound?
Answer: 35.3 µM

Question: And the GI50 [5]?
Answer: 24.1 µM

Question: What about the TGI [5] of the same compound?
Answer: > 100 µM

Question: And the GI50 [6]?
Answer: 13.2 µM

Question: What about the TGI [6] of the same compound?
Answer: 58.6 µM

Question: What about the GI50 [7] of the same compound?
Answer: 4.81 µM

Question: And the TGI [7]?
Answer: > 100 µM

Question: And the GI50 [8]?
Answer: 14.8 µM

Question: And the TGI [8]?
Answer: 34.3 µM

Question: And the GI50 [9]?
Answer: 4.26 µM

Question: And the TGI [9]?
Answer: 34.5 µM

Question: What about the GI50 [10] of the same compound?
Answer: 4.99 µM

Question: And the TGI [10]?
Answer: 32.4 µM

Question: What about the GI50 [11] of the same compound?
Answer: 7.57 µM

Question: And the TGI [11]?
Answer: 84.4 µM

Question: What about the GI50 [12] of the same compound?
Answer: 2820 nM

Question: What about the TGI [12] of the same compound?
Answer: 9.73 µM

Question: What about the GI50 [13] of the same compound?
Answer: 225 nM

Question: What about the TGI [13] of the same compound?
Answer: 10.8 µM

Question: What about the GI50 [14] of the same compound?
Answer: 4.75 µM

Question: And the TGI [14]?
Answer: > 100 µM

Question: And the GI50 [15]?
Answer: 6.62 µM

Question: And the TGI [15]?
Answer: 43.7 µM

Question: What about the GI50 [16] of the same compound?
Answer: 4.31 µM

Question: And the TGI [16]?
Answer: 18.5 µM

Question: What about the GI50 [17] of the same compound?
Answer: 6.6 µM

Question: What about the TGI [17] of the same compound?
Answer: 68.1 µM

Question: What about the GI50 [18] of the same compound?
Answer: 15.7 µM

Question: And the TGI [18]?
Answer: > 100 µM

Question: What about the GI50 [19] of the same compound?
Answer: 10 µM

Question: And the TGI [19]?
Answer: 38.2 µM

Question: And the GI50 [20]?
Answer: 17 µM

Question: And the TGI [20]?
Answer: 61.1 µM

Question: And the GI50 [21]?
Answer: 5.47 µM

Question: What about the TGI [21] of the same compound?
Answer: 27.5 µM

Question: And the GI50 [22]?
Answer: 4.53 µM

Question: What about the TGI [22] of the same compound?
Answer: > 100 µM

Question: What about the GI50 [23] of the same compound?
Answer: 5.34 µM

Question: What about the TGI [23] of the same compound?
Answer: > 100 µM

Question: What about the GI50 [24] of the same compound?
Answer: 14.5 µM

Question: And the TGI [24]?
Answer: 87 µM

Question: And the GI50 [25]?
Answer: 4.84 µM

Question: And the TGI [25]?
Answer: 21.1 µM

Question: And the GI50 [26]?
Answer: 6.65 µM

Question: What about the TGI [26] of the same compound?
Answer: > 100 µM

Question: What about the GI50 [27] of the same compound?
Answer: 2580 nM

Question: And the TGI [27]?
Answer: 12.5 µM

Question: And the GI50 [28]?
Answer: 4.73 µM

Question: And the TGI [28]?
Answer: 27.6 µM

Question: And the GI50 [29]?
Answer: 3.93 µM

Question: What about the TGI [29] of the same compound?
Answer: 50.7 µM

Question: And the GI50 [30]?
Answer: 4.3 µM

Question: And the TGI [30]?
Answer: > 100 µM

Question: What about the GI50 [31] of the same compound?
Answer: 11.2 µM

Question: What about the TGI [31] of the same compound?
Answer: 42.3 µM

Question: And the GI50 [32]?
Answer: 6.03 µM

Question: What about the TGI [32] of the same compound?
Answer: > 100 µM

Question: What about the GI50 [33] of the same compound?
Answer: 6.25 µM

Question: And the TGI [33]?
Answer: 46.7 µM

Question: And the GI50 [34]?
Answer: 11.6 µM

Question: What about the TGI [34] of the same compound?
Answer: 29.3 µM

Question: And the GI50 [35]?
Answer: 1600 nM

Question: And the TGI [35]?
Answer: 4.73 µM

Question: And the GI50 [36]?
Answer: 8.34 µM

Question: What about the TGI [36] of the same compound?
Answer: 42 µM

Question: What about the GI50 [37] of the same compound?
Answer: 12.2 µM

Question: And the TGI [37]?
Answer: 34.4 µM

Question: What about the GI50 [38] of the same compound?
Answer: 3.82 µM

Question: And the TGI [38]?
Answer: 20.6 µM

Question: And the GI50 [39]?
Answer: 9.92 µM

Question: And the TGI [39]?
Answer: 33.8 µM

Question: What about the GI50 [40] of the same compound?
Answer: 2900 nM

Question: What about the TGI [40] of the same compound?
Answer: 13.5 µM

Question: And the GI50 [41]?
Answer: 6.92 µM

Question: And the TGI [41]?
Answer: 51.5 µM

Question: And the GI50 [42]?
Answer: 10.6 µM

Question: What about the TGI [42] of the same compound?
Answer: 39.3 µM

Question: And the GI50 [43]?
Answer: 6.2 µM

Question: And the TGI [43]?
Answer: 33.1 µM

Question: And the GI50 [44]?
Answer: 14 µM

Question: What about the TGI [44] of the same compound?
Answer: > 100 µM

Question: And the GI50 [45]?
Answer: 12.2 µM

Question: What about the TGI [45] of the same compound?
Answer: 46.9 µM

Question: And the GI50 [46]?
Answer: 4.73 µM

Question: What about the TGI [46] of the same compound?
Answer: 43.5 µM

Question: What about the GI50 [47] of the same compound?
Answer: 2250 nM

Question: What about the TGI [47] of the same compound?
Answer: 7.05 µM

Question: And the GI50 [48]?
Answer: 8.41 µM

Question: And the TGI [48]?
Answer: 30 µM

Question: What about the GI50 [49] of the same compound?
Answer: 2210 nM

Question: What about the TGI [49] of the same compound?
Answer: 6.17 µM

Question: What about the GI50 [50] of the same compound?
Answer: 4.76 µM

Question: And the TGI [50]?
Answer: 20.3 µM

Question: What about the GI50 [51] of the same compound?
Answer: 5.71 µM

Question: What about the TGI [51] of the same compound?
Answer: 19.1 µM

Question: What about the GI50 [52] of the same compound?
Answer: 6.29 µM

Question: What about the TGI [52] of the same compound?
Answer: > 100 µM

Question: What about the GI50 [53] of the same compound?
Answer: 5.31 µM

Question: What about the TGI [53] of the same compound?
Answer: 26.8 µM

Question: What about the GI50 [54] of the same compound?
Answer: 8.92 µM

Question: And the TGI [54]?
Answer: 39.1 µM

Question: What about the GI50 [55] of the same compound?
Answer: 4.13 µM

Question: What about the TGI [55] of the same compound?
Answer: 48.5 µM

Question: What about the GI50 [56] of the same compound?
Answer: 4.25 µM

Question: What about the TGI [56] of the same compound?
Answer: 30.6 µM

Question: What about the GI50 [57] of the same compound?
Answer: 15.3 µM

Question: What about the TGI [57] of the same compound?
Answer: 98.7 µM

Question: And the GI50 [58]?
Answer: 6.86 µM

Question: And the TGI [58]?
Answer: > 100 µM
